Where a chain is given by its changes, count along the chain named.

Holding throughout (format): biochemical
One experiment has as its target T1, ALDH2*1/*1 (Homo sapiens, UniProt P05091).
T1 construct: His-tag (N); made in house; host or cells: E. coli BL21 (pTrcHis vector)
T1 sequence (P05091 18-517): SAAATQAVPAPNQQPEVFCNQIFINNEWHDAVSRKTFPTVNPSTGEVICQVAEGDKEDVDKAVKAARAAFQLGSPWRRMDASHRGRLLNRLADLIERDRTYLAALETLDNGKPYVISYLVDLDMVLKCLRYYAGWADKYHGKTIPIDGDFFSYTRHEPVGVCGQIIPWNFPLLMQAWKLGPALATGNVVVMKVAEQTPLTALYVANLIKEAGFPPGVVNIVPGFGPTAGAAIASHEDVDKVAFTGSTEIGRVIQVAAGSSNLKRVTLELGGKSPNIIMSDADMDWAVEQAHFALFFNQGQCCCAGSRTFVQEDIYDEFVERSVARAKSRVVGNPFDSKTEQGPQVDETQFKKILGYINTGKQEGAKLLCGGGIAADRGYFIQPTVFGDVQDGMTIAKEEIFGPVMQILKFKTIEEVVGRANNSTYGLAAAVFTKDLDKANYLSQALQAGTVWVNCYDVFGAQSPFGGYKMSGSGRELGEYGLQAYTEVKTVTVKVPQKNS
Briefly: ALDH2 enzymatic activity, NADH accumulation at 340 nm, acetaldehyde substrate, wild type. As to conditions: relative to baseline enzymatic activity (100%); for activity at 2.5 µM: 2.5 μM compound; for activity at 5 µM: 5 μM compound; for activity at 10 µM: 10 μM compound; for activity at 20 µM: 20 μM compound. The procedure, abridged: (§1)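 N-terminally His-tagged recombinant human ALDH2 (wild type, or E487K co-expressed with wild type for heterotetramers) was made in E. coli and Ni-purified. Activity was followed as NADH formation at 340 nm with acetaldehyde and NAD+, with compound at 20 to 0.16 μM, expressed as % of baseline activity.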

The target of the next experiment is T2, ALDH2*1/*2 (Homo sapiens, UniProt P05091, E504K).
T2 construct: His-tag; made in house; host or cells: E. coli BL21 (pETDuet-1 co-expression)
T2 sequence (P05091 18-517): T1 sequence (P05091 18-517)
T2 sequence (P05091 18-517 E504K): T1 sequence (P05091 18-517) with E487K
Kind of experiment: ALDH2 enzymatic activity, NADH accumulation at 340 nm, acetaldehyde substrate, heterozygous form. As to conditions: relative to baseline enzymatic activity (100%); for activity at 2.5 µM: 2.5 μM compound; for activity at 5 µM: 5 μM compound; for activity at 10 µM: 10 μM compound; for activity at 20 µM: 20 μM compound. In a few lines:
as §1

In a further experiment the target is T3, ALDH2 (Homo sapiens, UniProt P05091).
T3 construct: His-tag (N); made in house; host or cells: E. coli BL21
T3 sequence (P05091 18-517): T1 sequence (P05091 18-517)
Kind of experiment: ALDH2 activity with 20 μM of the compound (Table 3). As to conditions: 20 μM compound. The procedure, abridged: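 Compound was tested at 20 μM. ALDH2 oxidation of acetaldehyde with NAD+ cofactor was followed spectrophotometrically as NADH accumulation at 340 nm. Activity is expressed relative to the enzyme's baseline activity, taken as 100%.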

Regarding `COc1ccc(CNC(=O)c2cc(-c3ccsc3CO)cnc2OCC2CC2)cc1F` [AC25, 2-(cyclopropylmethoxy)-N-(3-fluoro-4-methoxybenzyl)-5-(2-(hydroxymethyl)thiophen-3-yl)nicotinamide], on ALDH2*1/*1, the activity at 2.5 µM was 273%, the activity at 5 µM was determined as 341%, the activity at 10 µM was determined as 422% and the activity at 20 µM was found to be 382%. On ALDH2*1/*2, the activity at 2.5 µM came to 267%, the activity at 5 µM amounted to 321%, the activity at 10 µM was determined as 343% and the activity at 20 µM came out at 260%. Moreover, the activity at 20 µM at ALDH2 is more than 250%.

For `COc1ccc(CNC(=O)c2cc(-c3ccc(F)cc3CO)ccc2OCC2CC2)cc1F` [AC23], at ALDH2*1/*1, the activity at 2.5 µM came out at 210%, the activity at 5 µM was determined as 262%, the activity at 10 µM stood at 291% and the activity at 20 µM amounted to 375%. In addition, at ALDH2*1/*2, the activity at 2.5 µM was determined as 187%, the activity at 5 µM was 252%, the activity at 10 µM was found to be 263% and the activity at 20 µM was 196%. For the same compound, the activity at 20 µM at ALDH2 is more than 250%.

Take `COc1ccc(CNC(=O)c2cc(-c3cscc3CO)cnc2OCC2CC2)cc1F` [AC24]: on ALDH2*1/*1, the activity at 2.5 µM worked out at 175%, the activity at 5 µM came to 248%, the activity at 10 µM was 321% and the activity at 20 µM is 428%. Moreover, on ALDH2*1/*2, the activity at 2.5 µM was 149%, the activity at 5 µM is 234%, the activity at 10 µM came out at 269% and the activity at 20 µM was 216%. The activity at 20 µM on ALDH2 was more than 250%.

The record behind these values is patent US9879036B2, “Mitochondrial aldehyde dehydrogenase-2 binding compounds and methods of use thereof” (Aviv Therapeutics, Inc., priority 2014, dated 2018).
